Measured values reported in PubChem BioAssay AID328 (DTP/NCI, 2004).
Several values for one entry are separate records, joined by “and”; a condition that tells them apart may be missing. Identical values can stand only once. Inconclusive results and toxic doses are left out.

System: BDF1 mice, P388 leukemia ip, median survival T/C
Assay: NCI In Vivo Anticancer Drug Screen. Data for tumor model P388 Leukemia (intraperitoneal) in B6D2F1 (BDF1) mice
Details: endpoint: median survival time, higher = longer survival
How it was run: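 Compound-treated tumour-bearing mice were compared with vehicle-treated controls. Survival was recorded, and the value is the treated-group measurement divided by the control-group measurement (T/C).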

[1] = dose: 50.0 mg/kg/injection, schedule: Q01DX009 (ip), vehicle: Klucel (hydroxypropylcellulose) (HPC)
[2] = dose: 100.0 mg/kg/injection, schedule: Q01DX009 (ip), vehicle: Klucel (hydroxypropylcellulose) (HPC)
[3] = dose: 100.0 mg/kg/injection, schedule: Q04DX003 (ip), vehicle: Klucel (hydroxypropylcellulose) (HPC)
[4] = dose: 50.0 mg/kg/injection, schedule: Q01DX005 (ip), vehicle: saline with Tween-80
[5] = dose: 100.0 mg/kg/injection, schedule: Q01DX005 (ip), vehicle: saline with Tween-80
[6] = dose: 200.0 mg/kg/injection, schedule: Q01DX005 (ip), vehicle: saline with Tween-80
[7] = dose: 100.0 mg/kg/injection, schedule: Q01DX009 (ip), vehicle: saline with Tween-80
[8] = dose: 200.0 mg/kg/injection, schedule: Q01DX009 (ip), vehicle: saline with Tween-80
[9] = dose: 25.0 mg/kg/injection, schedule: Q01DX009 (ip), vehicle: Klucel (hydroxypropylcellulose) (HPC)
[10] = dose: 50.0 mg/kg/injection, schedule: Q01DX009 (ip), vehicle: saline with Tween-80

O=C(NN=C1CCCCC1)c1ccccc1
T/C (dose: 25.0 mg/kg/injection, schedule: Q04DX003 (ip), vehicle: Klucel (hydroxypropylcellulose) (HPC)): 100 % of control | T/C [1]: 100 % of control | T/C (dose: 50.0 mg/kg/injection, schedule: Q04DX003 (ip), vehicle: Klucel (hydroxypropylcellulose) (HPC)): 100 % of control | T/C (dose: 56.25 mg/kg/injection, schedule: Q01DX001 (ip), vehicle: Klucel (hydroxypropylcellulose) (HPC)): 100 % of control | T/C [2]: 110 % of control | T/C [3]: 86 % of control | T/C (dose: 112.5 mg/kg/injection, schedule: Q01DX001 (ip), vehicle: Klucel (hydroxypropylcellulose) (HPC)): 104 % of control | T/C (dose: 150.0 mg/kg/injection, schedule: Q04DX003 (ip), vehicle: Klucel (hydroxypropylcellulose) (HPC)): 104 % of control | T/C (dose: 225.0 mg/kg/injection, schedule: Q01DX001 (ip), vehicle: Klucel (hydroxypropylcellulose) (HPC)): 109 % of control | T/C (dose: 225.0 mg/kg/injection, schedule: Q04DX003 (ip), vehicle: Klucel (hydroxypropylcellulose) (HPC)): 95 % of control

C=C(CN(CC(=C)C(=O)c1ccccc1)C(C)(C)C)C(=O)c1ccccc1
T/C (dose: 6.25 mg/kg/injection, schedule: Q01DX009 (ip), vehicle: saline with Tween-80): 106 % of control | T/C (dose: 12.5 mg/kg/injection, schedule: Q01DX009 (ip), vehicle: saline with Tween-80): 111 % of control | T/C (dose: 25.0 mg/kg/injection, schedule: Q01DX009 (ip), vehicle: saline with Tween-80): 103 % of control

CCNC(=O)OCc1cnc(C)c(OC(=O)NCC)c1COC(=O)NCC
T/C (dose: 25.0 mg/kg/injection, schedule: Q01DX005 (ip), vehicle: saline with Tween-80): 98 % of control | T/C [4]: 110 % of control | T/C [5]: 100 % of control | T/C [6]: 101 % of control

O=[N+]([O-])c1cccc(N2CN(c3ccccc3)NC(c3ccccc3)=N2)c1
T/C (dose: 12.5 mg/kg/injection, schedule: Q04DX003 (ip), vehicle: saline with Tween-80): 100 % of control | T/C (dose: 25.0 mg/kg/injection, schedule: Q04DX003 (ip), vehicle: saline with Tween-80): 96 % of control | T/C (dose: 50.0 mg/kg/injection, schedule: Q04DX003 (ip), vehicle: saline with Tween-80): 105 % of control

O=C(NCCCl)OCC(F)(F)F
T/C (dose: 50.0 mg/kg/injection, schedule: Q01DX005 (ip), vehicle: Klucel (hydroxypropylcellulose) (HPC)): 113 % of control | T/C (dose: 100.0 mg/kg/injection, schedule: Q01DX005 (ip), vehicle: Klucel (hydroxypropylcellulose) (HPC)): 97 % of control | T/C (dose: 200.0 mg/kg/injection, schedule: Q01DX005 (ip), vehicle: Klucel (hydroxypropylcellulose) (HPC)): 108 % of control

CC1(C)OC2(C)CCC1C(O)C2N1CCCCC1 (centres undefined)
T/C [4]: 108 % of control | T/C [5]: 95 % of control | T/C [6]: 106 % of control

Clc1ccc(CSc2ncnc3nc[nH]c23)cc1
T/C [7]: 100 % of control | T/C [8]: 104 % of control

O=[N+]([O-])c1ccc2c3c(cccc13)-c1ccccc1-2
T/C [2]: 110 % of control | T/C [3]: 90 % of control | T/C (dose: 200.0 mg/kg/injection, schedule: Q01DX009 (ip), vehicle: Klucel (hydroxypropylcellulose) (HPC)): 105 % of control | T/C (dose: 200.0 mg/kg/injection, schedule: Q04DX003 (ip), vehicle: Klucel (hydroxypropylcellulose) (HPC)): 95 % of control | T/C (dose: 400.0 mg/kg/injection, schedule: Q01DX009 (ip), vehicle: Klucel (hydroxypropylcellulose) (HPC)): 100 % of control | T/C (dose: 400.0 mg/kg/injection, schedule: Q04DX003 (ip), vehicle: Klucel (hydroxypropylcellulose) (HPC)): 100 % of control

O=C1OC(=O)C2C3C=CC(C4C=CC43)C12 (centres undefined)
T/C (dose: 12.5 mg/kg/injection, schedule: Q04DX003 (ip), vehicle: saline): 101 % of control | T/C (dose: 25.0 mg/kg/injection, schedule: Q01DX009 (ip), vehicle: saline): 97 % of control | T/C (dose: 25.0 mg/kg/injection, schedule: Q04DX003 (ip), vehicle: saline): 104 % of control | T/C (dose: 50.0 mg/kg/injection, schedule: Q01DX009 (ip), vehicle: saline): 97 % of control | T/C (dose: 50.0 mg/kg/injection, schedule: Q04DX003 (ip), vehicle: saline): 111 % of control and 124 % of control | T/C (dose: 100.0 mg/kg/injection, schedule: Q04DX003 (ip), vehicle: saline): 92 % of control and 106 % of control | T/C (dose: 200.0 mg/kg/injection, schedule: Q01DX009 (ip), vehicle: saline): 86 % of control | T/C (dose: 200.0 mg/kg/injection, schedule: Q04DX003 (ip), vehicle: saline): 111 % of control and 119 % of control | T/C (dose: 400.0 mg/kg/injection, schedule: Q01DX009 (ip), vehicle: saline): 100 % of control | T/C (dose: 400.0 mg/kg/injection, schedule: Q04DX003 (ip), vehicle: saline): 109 % of control

CC(=O)OC1CCC2(C)C3=C(CCC2C1(C)C)C1(C)CCC(c2ccc(C(C)C)oc2=O)C1(C)CC3 (centres undefined)
T/C (dose: 70.0 mg/kg/injection, schedule: Q01DX010 (ip), vehicle: carboxymethylcellulose (CMC)): 90 % of control | T/C (dose: 140.0 mg/kg/injection, schedule: Q01DX010 (ip), vehicle: carboxymethylcellulose (CMC)): 90 % of control | T/C (dose: 280.0 mg/kg/injection, schedule: Q01DX010 (ip), vehicle: carboxymethylcellulose (CMC)): 90 % of control

COc1ccc(C(C#N)Nc2ccccc2)cc1 (centres undefined)
T/C [7]: 105 % of control | T/C (dose: 100.0 mg/kg/injection, schedule: Q04DX003 (ip), vehicle: saline with Tween-80): 109 % of control | T/C [8]: 110 % of control | T/C (dose: 200.0 mg/kg/injection, schedule: Q04DX003 (ip), vehicle: saline with Tween-80): 100 % of control | T/C (dose: 400.0 mg/kg/injection, schedule: Q01DX009 (ip), vehicle: saline with Tween-80): 95 % of control | T/C (dose: 400.0 mg/kg/injection, schedule: Q04DX003 (ip), vehicle: saline with Tween-80): 109 % of control

C=CCOP(=O)(OCC=C)OCC=C
T/C [9]: 100 % of control | T/C [1]: 104 % of control | T/C [2]: 104 % of control

COc1ccc2c(=O)c3c(=O)c4c(=O)oc5ccccc5c4oc3oc2c1
T/C [10]: 88 % of control | T/C [7]: 88 % of control | T/C [8]: 88 % of control

N=C(N)SC1c2cc(Cl)ccc2-c2c(Cl)cc(Cl)cc21 (centres undefined)
T/C (dose: 3.1 mg/kg/injection, schedule: Q01DX010 (ip), vehicle: carboxymethylcellulose (CMC)): 100 % of control | T/C (dose: 6.2 mg/kg/injection, schedule: Q01DX010 (ip), vehicle: carboxymethylcellulose (CMC)): 110 % of control | T/C (dose: 12.5 mg/kg/injection, schedule: Q01DX009 (ip), vehicle: Klucel (hydroxypropylcellulose) (HPC)): 100 % of control | T/C (dose: 12.5 mg/kg/injection, schedule: Q01DX010 (ip), vehicle: carboxymethylcellulose (CMC)): 110 % of control | T/C [9]: 120 % of control | T/C (dose: 100.0 mg/kg/injection, schedule: Q01DX010 (ip), vehicle: carboxymethylcellulose (CMC)): 150 % of control

CCOC(=O)C1=C(O)Cc2c(nc3ccc(C)cn3c2=O)C1
T/C [10]: 100 % of control | T/C [7]: 96 % of control | T/C [8]: 98 % of control

CCCCCCCCCCCCCC[n+]1ccccc1
T/C (dose: 16.0 micrograms/kg/injection, schedule: Q01DX009 (ip), vehicle: saline with Tween-80): 87 % of control | T/C (dose: 32.0 micrograms/kg/injection, schedule: Q01DX009 (ip), vehicle: saline with Tween-80): 100 % of control | T/C (dose: 62.5 micrograms/kg/injection, schedule: Q01DX009 (ip), vehicle: saline): 113 % of control | T/C (dose: 62.5 micrograms/kg/injection, schedule: Q01DX010 (ip), vehicle: saline): 115 % of control | T/C (dose: 125.0 micrograms/kg/injection, schedule: Q01DX009 (ip), vehicle: saline): 122 % of control | T/C (dose: 250.0 micrograms/kg/injection, schedule: Q01DX010 (ip), vehicle: saline): 110 % of control

NC(=O)Nc1cc(NC(N)=O)cc(N(CCO)CCO)c1
T/C (dose: 50.0 mg/kg/injection, schedule: Q01DX009 (ip), vehicle: water): 94 % of control | T/C (dose: 100.0 mg/kg/injection, schedule: Q01DX009 (ip), vehicle: water): 102 % of control | T/C (dose: 100.0 mg/kg/injection, schedule: Q04DX003 (ip), vehicle: water): 118 % of control | T/C (dose: 200.0 mg/kg/injection, schedule: Q01DX009 (ip), vehicle: water): 96 % of control | T/C (dose: 200.0 mg/kg/injection, schedule: Q04DX003 (ip), vehicle: water): 102 % of control | T/C (dose: 400.0 mg/kg/injection, schedule: Q01DX009 (ip), vehicle: water): 100 % of control | T/C (dose: 400.0 mg/kg/injection, schedule: Q04DX003 (ip), vehicle: water): 102 % of control

O=C(Nc1cccc(Cl)c1)ON1CCCCC1
T/C [10]: 106 % of control | T/C [7]: 97 % of control | T/C [8]: 100 % of control
